# Assay results reported in patent US20140045860A1, “SMALL MOLECULE INHIBITORS FOR TREATING PARASITIC INFECTIONS” (NEW YORK UNIVERSITY, priority 2011, published 2014).
# Several values for one entry are separate records, joined by “and”; a condition that tells them apart may be missing. Equal values may be shown once. Read-outs that look alike come from different tables or passages of the source.
# Experiments:
# Format in all cases: cell-based
# [1] = test system: T. b. rhod.; assay: In vitro counter screen, T. b. rhod.
# Procedure: (§1) In vitro counter screens were performed to confirm our findings.
# [2] = test system: T. cruzi; assay: In vitro counter screen, T. cruzi; conditions: Trypanosoma cruzi
# Procedure: (§2) A high-throughput screen of small molecules was performed in duplicate in the recombinant Tulahuen strain of T. cruzi stably expressing a beta-galactosidase reporter gene. Trypomastogote-stage parasites were co-cultured with mouse fibroblast NIH/3T3 host cells, (Buckner F S, Verlinde C L, La Flamme A C, Van Voorhis W C. Efficient technique for screening drugs for activity against Trypanosoma cruzi using parasites expressing beta-galactosidase. Antimicrob Agents Chemother. 1996; 40(11): 2592-2597). Signal was normalized to neutral (DMSO) controls, and a 75% inhibition cutoff was used to define a hit. Compounds initially designated as hits were retested in dose in the primary assay to confirm their inhibitory activity. In parallel, compounds were tested in toxicity assays against NIH/3T3 host cells to determine if these compounds were cytotoxic to mammalian cells and thus, false positives. Compounds that reduced the viability of NIH/3T3 cells were excluded as viable hits. A subset of hits were then tested in a similar infection assay with the Tulahuen strain of T. cruzi infecting murine L-6 cells and the intracellular T. cruzi immunofluorescence assay described below.
# as §1
# [3] = test system: L. don. axen.; assay: In vitro counter screen, L. don. axen.
# Procedure: as §1
# [4] = test system: P. falc. K1; assay: In vitro counter screen, P. falc. K1
# Procedure: as §1
# [5] = In vitro counter screen, cytotoxicity L6; conditions: murine
# [6] = test system: T. cruzi; assay: T. cruzi inhibition assay (beta-galactosidase T. cruzi co-cultured with NIH/3T3 host cells); conditions: Trypanosoma cruzi, NIH3T3; Table 2
# Procedure: as §2
# 1. T. cruzi Inhibition Assay
# 98% DMEM, Phenol Red, 2% FBS, and 1% PSG were mixed and filtered through a 0.2 microns membrane. The cells were kept at 4° C., then warmed up to 37° C. in a water bath before use.
# Gal-Screen. Using a Gal-Screen base kit, Buffer B (Catalog no. T2361) was mixed with 1:25 substrate (Catalog no. T2359).
# NIH/3T3 cells were cultivated in DMEM supplemented with 10% FBS and 1% PSG in T175 in 50 mL total of medium.
# Parasite Culture: T. cruzi β-gal (Tc): T. cruzi β-gal were cultivated in DMEM supplemented with 2% FBS and 1% PSG in T175 flasks with vented caps in 50 mL total of medium.
# 2. Growth Inhibition Assay for HTS (384-Well Plates)
# The medium was warmed up with 2% FBS/DMEM. The parasites were harvested in 50-mL tubes, and spun for 10 minutes at 2200 rpm. Approximately 15 mL of media was aspirated, and the samples were incubated for 3-5 h. The NIH/3T3 cells were trypsinized (refer to cell culture protocol). When the NIH/3T3 cells were detached, the cells were harvested in DMEM, 2% FBS, and 1% PSG, then counted using the Nexcelom cellometer. The cells were diluted to 166,667 cells/mL, then added to a flask and plated 5,000 cells/30 μL per well using a standard cassette multiwall drob Combi. The cells were incubated for 3 h, then T. cruzi cells were counted, diluted to 0.166 million cells/mL, and transferred to a 2-liter flask. Then, […] compounds/DMSO were pinned to each well with NIH/3T3 cells. Next, 30 μL/well of parasites (5000 T. cruzi) were added with a standard cassette multiwall drop Combi on slow speed, and incubated for 4 days (or a minimum of 90 h). Gal-Screen was prepared, 30 μL per well were dispensed in a 384-well plate, incubated for 60 minutes, and the luminescence was read using Envision (Perkin-Elmer) at 0.1 sec/well.
# [7] = read-out: T. b. rhod. (IC50, ug/mL)
# [8] = same result as ug/mL, in uM, read-out: T. b. rhod (IC50 uM)
# [9] = read-out: T. cruzi IC50 (ug/mL)
# [10] = same result as ug/mL, in uM, read-out: L. don. Axen (IC50 uM)
# [11] = same result as ug/mL, in uM, read-out: P. falc. K1 (IC50 uM)
smiles,measurement,setting,value
C[C@H](CO)N1C[C@H](C)[C@H](CN(C)Cc2ccccc2)Oc2c(NC(=O)c3ccncc3)cccc2C1=O [Compound 1],IC50,[1]; [7],75.4 µg/mL
same,IC50,[1]; [8],150 µM
same,IC50,[2]; read-out: T. cruzi (IC50 uM),1.24 µM
same,IC50,[2]; [9],0.622 µg/mL
same,IC50,[3]; read-out: L. don. axen. IC50,> 100 µg/mL
same,IC50,[3]; [10],> 199 µM
same,IC50,[4]; read-out: P. falc. K1 IC50,20.6 µg/mL
same,IC50,[4]; [11],41 µM
same,IC50,[5],> 199 µM and > 100 µg/mL
COc1ccc(CN(C)C[C@@H]2Oc3c(NC(=O)c4ccncc4)cccc3C(=O)N([C@H](C)CO)C[C@H]2C)cc1 [Compound 5],IC50,[1]; [7],20.2 µg/mL
same,IC50,[1]; [8],37.9 µM
same,IC50,[2]; read-out: T. cruzi (IC50 uM),1.31 µM
same,IC50,[2]; [9],0.699 µg/mL
same,IC50,[3]; read-out: L. don. axen. IC50,> 100 µg/mL
same,IC50,[3]; [10],> 188 µM
same,IC50,[4]; read-out: P. falc. K1 IC50,7.39 µg/mL
same,IC50,[4]; [11],13.9 µM
same,IC50,[5],> 188 µM and > 100 µg/mL
C[C@@H]1CN([C@@H](C)CO)C(=O)c2cccc(NC(=O)c3ccncc3)c2O[C@H]1CN(C)Cc1ccc(-c2ccccc2)cc1 [Compound 7],IC50,[1]; [7],0.729 µg/mL
same,IC50,[1]; [8],1.26 µM
same,IC50,[2]; read-out: T. cruzi (IC50 uM),0.123 µM
same,IC50,[2]; [9],0.071 µg/mL
same,IC50,[3]; read-out: L. don. axen. IC50,13.3 µg/mL
same,IC50,[3]; [10],23 µM
same,IC50,[4]; read-out: P. falc. K1 IC50,1.2 µg/mL
same,IC50,[4]; [11],2.07 µM
same,IC50,[5],23.3 µM and 13.5 µg/mL
C[C@@H]1CN([C@H](C)CO)C(=O)c2cccc(NC(=O)c3ccncc3)c2O[C@H]1CN(C)Cc1ccc2c(c1)OCO2 [Compound 8],IC50,[1]; [8],12.5 µM
same,IC50,[2]; read-out: T. cruzi (IC50 uM),0.143 µM
same,IC50,[3]; read-out: L. don. Axen (IC50 uM),> 183 µM
same,IC50,[4]; [11],10.6 µM
same,IC50,"[5]; L6 cells, same result as ug/mL, in uM, read-out: cytotox, (IC50 uM)",> 183 µM
C[C@@H]1CN([C@H](C)CO)C(=O)c2cccc(NC(=O)c3ccncc3)c2O[C@H]1CN(C)Cc1ccccc1 [Compound 9],IC50,[1]; [7],35.1 µg/mL
same,IC50,[1]; [8],69.8 µM
same,IC50,[2]; read-out: T. cruzi (IC50 uM),0.304 µM
same,IC50,[2]; [9],0.153 µg/mL
same,IC50,[3]; read-out: L. don. axen. IC50,84.4 µg/mL
same,IC50,[3]; [10],168 µM
same,IC50,[4]; read-out: P. falc. K1 IC50,4.83 µg/mL
same,IC50,[4]; [11],9.61 µM
same,IC50,[5],> 199 µM and > 100 µg/mL
C[C@H](CO)N1C[C@H](C)[C@@H](CN(C)Cc2ccc(C(F)(F)F)cc2)Oc2c(NC(=O)c3ccncc3)cccc2C1=O [Compound 13],IC50,[1]; [7],3.49 µg/mL
same,IC50,[1]; [8],6.12 µM
same,IC50,[2]; read-out: T. cruzi (IC50 uM),0.875 µM
same,IC50,[2]; [9],0.499 µg/mL
same,IC50,[3]; read-out: L. don. axen. IC50,16.3 µg/mL
same,IC50,[3]; [10],28.6 µM
same,IC50,[4]; read-out: P. falc. K1 IC50,2.95 µg/mL
same,IC50,[4]; [11],5.17 µM
same,IC50,[5],79.7 µM and 45.5 µg/mL
C[C@H]1CN([C@@H](C)CO)C(=O)c2cccc(NC(=O)c3ccncc3)c2O[C@H]1CN(C)Cc1ccccc1 [Compound 17],IC50,[1]; [7],6.14 µg/mL
same,IC50,[1]; [8],12.2 µM
same,IC50,[2]; read-out: T. cruzi (IC50 uM),0.39 µM
same,IC50,[2]; [9],0.196 µg/mL
same,IC50,[3]; read-out: L. don. axen. IC50,> 100 µg/mL
same,IC50,[3]; [10],> 199 µM
same,IC50,[4]; read-out: P. falc. K1 IC50,5.64 µg/mL
same,IC50,[4]; [11],11.2 µM
same,IC50,[5],> 199 µM and > 100 µg/mL
C[C@@H]1CN([C@@H](C)CO)C(=O)c2cccc(NC(=O)c3ccncc3)c2O[C@H]1CN(C)Cc1ccc(Oc2ccccc2)cc1 [Compound 21],IC50,[6],< 0.0026 µM
C[C@@H](CO)N1CC[C@H](CN(C)Cc2cccc(Cl)c2)Oc2c(NC(=O)c3ccncc3)cccc2C1=O [Compound 22],IC50,[6],< 0.0026 µM
C[C@@H]1CN([C@@H](C)CO)C(=O)c2cccc(NC(=O)c3ccncc3)c2O[C@H]1CN(C)C [Compound 23],IC50,[6],> 10 µM
C[C@H](CO)N1C[C@H](C)[C@@H](CN(C)Cc2ccc(Oc3ccccc3)cc2)Oc2c(NC(=O)c3ccncc3)cccc2C1=O [Compound 24],IC50,[6],< 0.0026 µM
C[C@@H]1CN([C@@H](C)CO)C(=O)c2cc(Br)cnc2O[C@H]1CN(C)Cc1ccc2c(c1)OCO2 [Compound 25],IC50,[6],> 10 µM
C[C@@H]1CN([C@@H](C)CO)C(=O)c2cccc(NC(=O)c3ccncc3)c2O[C@H]1CN(C)Cc1ccccc1Cl [Compound 26],IC50,[6],0.0039 µM
C[C@@H]1CN([C@H](C)CO)C(=O)c2cccc(NC(=O)c3ccncc3)c2O[C@H]1CN(C)Cc1ccc2c(c1)OCO2 [Compound 27],IC50,[6],0.00148 µM
C[C@@H]1CN([C@H](C)CO)C(=O)c2cccc(NC(=O)c3ccncc3)c2O[C@@H]1CN(C)Cc1ccc(Oc2ccccc2)cc1 [Compound 28],IC50,[6],0.0426 µM
C[C@H]1CN([C@@H](C)CO)C(=O)c2cccc(NC(=O)c3ccncc3)c2O[C@H]1CN(C)Cc1ccc(Oc2ccccc2)cc1 [Compound 29],IC50,[6],< 0.0026 µM
C[C@@H]1CN([C@@H](C)CO)C(=O)c2cccc(NC(=O)c3ccncc3)c2O[C@H]1CN(C)Cc1ccc(Cl)cc1 [Compound 30],IC50,[6],< 0.0026 µM
C[C@@H]1CN([C@@H](C)CO)C(=O)c2cc(-c3ccncc3)cnc2O[C@H]1CN(C)Cc1ccc(Oc2ccccc2)cc1 [Compound 31],IC50,[6],1.28 µM
C[C@@H]1CN([C@@H](C)CO)C(=O)c2cccc(NC(=O)c3ccncc3)c2O[C@@H]1CN(C)Cc1ccc(Oc2ccccc2)cc1 [Compound 32],IC50,[6],0.00434 µM
C[C@@H]1CN([C@@H](C)CO)C(=O)c2cc(-c3cncnc3)cnc2O[C@H]1CN(C)Cc1ccc(Oc2ccccc2)cc1 [Compound 33],IC50,[6],> 10 µM
CC(C)N1C[C@@H](C)[C@H](CN(C)Cc2ccc(Oc3ccccc3)cc2)Oc2c(NC(=O)c3ccncc3)cccc2C1=O [Compound 34],IC50,[6],< 0.0026 µM
Cc1cc(C(=O)Nc2cccc3c2O[C@@H](CN(C)Cc2ccc(Oc4ccccc4)cc2)[C@H](C)CN([C@@H](C)CO)C3=O)n(C)n1 [Compound 35],IC50,[6],> 10 µM
C[C@@H]1CN([C@@H](C)CO)C(=O)c2cccc(NC(=O)c3ccncc3)c2O[C@H]1CN(C)Cc1ccc2c(c1)OCO2 [Compound 36],IC50,[6],0.00659 µM
C[C@@H]1CN([C@H](C)CO)C(=O)c2cccc(NC(=O)c3ccncc3)c2O[C@H]1CN(C)Cc1ccccc1 [Compound 37],IC50,[6],0.0153 µM
C[C@@H]1CN([C@@H](C)CO)C(=O)c2cccc(NC(=O)c3cnccn3)c2O[C@H]1CN(C)Cc1ccc(Oc2ccccc2)cc1 [Compound 38],IC50,[6],1 µM
COc1ccc(CN(C)C[C@@H]2Oc3c(NC(=O)c4ccncc4)cccc3C(=O)N([C@@H](C)CO)C[C@H]2C)cc1 [Compound 39],IC50,[6],0.011 µM
C[C@H]1CN([C@@H](C)CO)C(=O)c2cccc(NC(=O)c3ccncc3)c2O[C@@H]1CN(C)Cc1ccc(Oc2ccccc2)cc1 [Compound 40],IC50,[6],< 0.0026 µM
C[C@@H]1CN([C@H](C)CO)C(=O)c2cccc(NC(=O)c3ccncc3)c2O[C@H]1CN(C)Cc1ccc(Oc2ccccc2)cc1 [Compound 41],IC50,[6],0.000529 µM
C[C@@H]1CN([C@@H](C)CO)C(=O)c2cccc(NC(=O)c3ccncc3)c2O[C@H]1CN(C)CC1CCCCC1 [Compound 42],IC50,[6],0.0421 µM
C[C@@H]1CN([C@@H](C)CO)C(=O)c2cc(-c3cccnc3)cnc2O[C@H]1CN(C)Cc1ccc(Oc2ccccc2)cc1 [Compound 43],IC50,[6],9.27 µM
